# Patent US20240025884A1 (Dong-A ST Co., Ltd., priority 2022, published 2024)
# Target: GCN2 (Homo sapiens (Human), UniProt Q9P2K8)
# Test: GCN2 Biochemical Assay (TR-FRET, GFP-eIF2S1 substrate phosphorylation)
# Details: read-out: IC50 (GCN2 Inhibitory Activity)
# Procedure, shortened: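 In-house GCN2 (1.6 nM 2× stock) phosphorylates GFP-eIF2S1 (50 nM 2× stock) with ATP (0.2 mM 2× stock) and tRNA, pH 7.5, 70 min at room temperature; 10-point 3.16-fold compound series. TR-FRET detection with Tb-anti-phospho antibody, 2–3 h, Ex 340/Em 490/520 nm; artifact plate spiked with phospho-substrate.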
# GCN2, sequence (Q9P2K8 whole entry): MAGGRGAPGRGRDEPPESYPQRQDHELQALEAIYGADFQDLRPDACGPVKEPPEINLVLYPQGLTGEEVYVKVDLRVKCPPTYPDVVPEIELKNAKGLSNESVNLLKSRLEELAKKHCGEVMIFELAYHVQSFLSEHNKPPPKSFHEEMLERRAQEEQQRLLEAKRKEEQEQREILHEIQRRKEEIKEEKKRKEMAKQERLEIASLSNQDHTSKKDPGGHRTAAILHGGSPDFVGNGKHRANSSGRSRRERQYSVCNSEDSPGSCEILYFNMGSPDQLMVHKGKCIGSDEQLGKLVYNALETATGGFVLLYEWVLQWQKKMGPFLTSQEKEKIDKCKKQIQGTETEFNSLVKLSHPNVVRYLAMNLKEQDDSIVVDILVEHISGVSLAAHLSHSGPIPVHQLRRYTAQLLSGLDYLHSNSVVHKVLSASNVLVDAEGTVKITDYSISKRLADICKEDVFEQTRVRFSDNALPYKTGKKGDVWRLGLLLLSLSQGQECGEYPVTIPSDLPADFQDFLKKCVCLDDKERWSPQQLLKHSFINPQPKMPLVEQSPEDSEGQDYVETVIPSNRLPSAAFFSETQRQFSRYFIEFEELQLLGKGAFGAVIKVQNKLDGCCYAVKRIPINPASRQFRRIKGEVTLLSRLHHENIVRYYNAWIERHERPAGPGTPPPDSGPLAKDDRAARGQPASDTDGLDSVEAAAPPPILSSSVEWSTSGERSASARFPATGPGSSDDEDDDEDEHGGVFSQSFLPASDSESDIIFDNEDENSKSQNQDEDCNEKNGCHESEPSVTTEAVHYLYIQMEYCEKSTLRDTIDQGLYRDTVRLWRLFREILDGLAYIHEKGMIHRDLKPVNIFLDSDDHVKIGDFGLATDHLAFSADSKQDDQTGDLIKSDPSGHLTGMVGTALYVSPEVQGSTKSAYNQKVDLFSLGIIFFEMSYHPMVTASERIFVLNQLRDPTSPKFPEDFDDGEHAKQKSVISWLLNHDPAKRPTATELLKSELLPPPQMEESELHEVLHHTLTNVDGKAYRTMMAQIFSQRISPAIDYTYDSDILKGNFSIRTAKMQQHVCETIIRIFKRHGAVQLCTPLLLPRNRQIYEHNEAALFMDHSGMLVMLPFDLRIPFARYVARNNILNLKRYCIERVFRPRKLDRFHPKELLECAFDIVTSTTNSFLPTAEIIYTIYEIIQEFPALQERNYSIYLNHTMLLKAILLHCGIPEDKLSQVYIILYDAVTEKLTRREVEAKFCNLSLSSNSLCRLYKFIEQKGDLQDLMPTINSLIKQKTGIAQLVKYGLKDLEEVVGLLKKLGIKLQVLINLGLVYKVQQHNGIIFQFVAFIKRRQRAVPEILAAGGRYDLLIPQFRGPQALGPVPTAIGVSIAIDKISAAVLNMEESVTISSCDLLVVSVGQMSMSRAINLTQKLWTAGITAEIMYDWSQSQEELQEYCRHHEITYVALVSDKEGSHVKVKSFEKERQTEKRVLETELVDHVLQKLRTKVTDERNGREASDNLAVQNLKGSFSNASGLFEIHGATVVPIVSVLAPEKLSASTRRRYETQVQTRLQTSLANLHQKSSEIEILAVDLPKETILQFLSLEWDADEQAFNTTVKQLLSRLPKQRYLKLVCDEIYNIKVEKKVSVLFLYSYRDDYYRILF
row,SMILES,IC50
1,"Cc1cnc(Nc2cc(C)n(C)n2)nc1-c1c[nH]c2c(N3Cc4c(/C=C/C(=O)NCCO)cccc4C3=O)cccc12 [Example 372, (E)-3-(2-(3-(2-((1,5-dimethyl-1H-pyrazol-3-yl)amino)-5-methylpyrimidin-4-yl)-1H-indol-7-yl)-1-oxoisoindolin-4-yl)-N-(2-hydroxyethyl)acrylamide]",< 10 nM
2,"CCCNC(=O)/C=C/c1cccc2c1CN(c1cccc3c(-c4nc(Nc5cc(C)n(C)n5)ncc4C)c[nH]c13)C2=O [Example 373, (E)-3-(2-(3-(2-((1,5-dimethyl-1H-pyrazol-3-yl)amino)-5-methylpyrimidin-4-yl)-1H-indol-7-yl)-1-oxoisoindolin-4-yl)-N-propylacrylamide]",< 10 nM
3,"COCCNC(=O)/C=C/c1cccc2c1CN(c1cccc3c(-c4nc(Nc5cc(C)n(C)n5)ncc4C)c[nH]c13)C2=O [Example 374, (E)-3-(2-(3-(2-((1,5-dimethyl-1H-pyrazol-3-yl)amino)-5-methylpyrimidin-4-yl)-1H-indol-7-yl)-1-oxoisoindolin-4-yl)-N-(2-methoxyethyl)acrylamide]",< 10 nM
4,"Cc1cnc(Nc2cc(C)n(C)n2)nc1-c1c[nH]c2c(N3Cc4c(/C=C/CO)cccc4C3=O)cccc12 [Example 375, (E)-2-(3-(2-((1,5-dimethyl-1H-pyrazol-3-yl)amino)-5-methylpyrimidin-4-yl)-1H-indol-7-yl)-4-(3-hydroxyprop-1-en-1-yl)isoindolin-1-one]",< 10 nM
5,"CCNC(=O)/C(C)=C/c1cccc2c1CN(c1cccc3c(-c4nc(Nc5cc(C)n(C)n5)ncc4C)c[nH]c13)C2=O [Example 376, (E)-3-(2-(3-(2-((1,5-dimethyl-1H-pyrazol-3-yl)amino)-5-methylpyrimidin-4-yl)-1H-indol-7-yl)-1-oxoisoindolin-4-yl)-N-ethyl-2-methylacrylamide]",< 10 nM
6,"Cc1cnc(Nc2cc(C)n(C)n2)nc1-c1c[nH]c2c(N3Cc4c(cccc4-c4ccccc4)C3=O)cccc12 [Example 377, 2-(3-(2-((1,5-dimethyl-1H-pyrazol-3-yl)amino)-5-methylpyrimidin-4-yl)-1H-indol-7-yl)-4-phenylisoindolin-1-one]",< 10 nM
7,"Cc1cnc(Nc2cc(C)n(C)n2)nc1-c1c[nH]c2c(N3Cc4cc(-c5ccccc5)ccc4C3=O)cccc12 [Example 378, 2-(3-(2-((1,5-dimethyl-1H-pyrazol-3-yl)amino)-5-methylpyrimidin-4-yl)-1H-indol-7-yl)-5-phenylisoindolin-1-one]",> 1000 nM
8,"Cc1cnc(Nc2cc(C)n(C)n2)nc1-c1c[nH]c2c(N3Cc4ccc(-c5ccccc5)cc4C3=O)cccc12 [Example 379, 2-(3-(2-((1,5-dimethyl-1H-pyrazol-3-yl)amino)-5-methylpyrimidin-4-yl)-1H-indol-7-yl)-6-phenylisoindolin-1-one]",100 to 1000 nM
9,"Cc1cnc(Nc2cc(C)n(C)n2)nc1-c1c[nH]c2c(N3Cc4ccc(-c5ccncc5)cc4C3=O)cccc12 [Example 380, 2-(3-(2-((1,5-dimethyl-1H-pyrazol-3-yl)amino)-5-methylpyrimidin-4-yl)-1H-indol-7-yl)-6-(pyridin-4-yl)isoindolin-1-one]",< 10 nM
10,"Cc1cnc(Nc2cc(C)n(C)n2)nc1-c1c[nH]c2c(N3Cc4ccc(C5=CCNCC5)cc4C3=O)cccc12 [Example 381, 2-(3-(2-((1,5-dimethyl-1H-pyrazol-3-yl)amino)-5-methylpyrimidin-4-yl)-1H-indol-7-yl)-6-(1,2,3,6-tetrahydropyridin-4-yl)isoindolin-1-one]",< 10 nM
11,"Cc1cnc(Nc2cc(C)n(C)n2)nc1-c1c[nH]c2c(N3Cc4cccc(-c5ccccc5)c4C3=O)cccc12 [Example 382, 2-(3-(2-((1,5-dimethyl-1H-pyrazol-3-yl)amino)-5-methylpyrimidin-4-yl)-1H-indol-7-yl)-7-phenylisoindolin-1-one]",10 to 100 nM
12,"Cc1cnc(Nc2cc(C)n(C)n2)nc1-c1c[nH]c2c(N3Cc4cccc(-c5ccncc5)c4C3=O)cccc12 [Example 383, 2-(3-(2-((1,5-dimethyl-1H-pyrazol-3-yl)amino)-5-methylpyrimidin-4-yl)-1H-indol-7-yl)-7-(pyridin-4-yl)isoindolin-1-one]",< 10 nM
13,"Cc1cnc(Nc2cc(C)n(C)n2)nc1-c1c[nH]c2c(N3Cc4cccc(C5=CCCCC5)c4C3=O)cccc12 [Example 384, 7-(cyclohex-1-en-1-yl)-2-(3-(2-((1,5-dimethyl-1H-pyrazol-3-yl)amino)-5-methylpyrimidin-4-yl)-1H-indol-7-yl)isoindolin-1-one]",100 to 1000 nM
14,"Cc1cnc(Nc2cc(C)n(C)n2)nc1-c1c[nH]c2c(N3Cc4cccc(C5=CCOCC5)c4C3=O)cccc12 [Example 385, 7-(3,6-dihydro-2H-pyran-4-yl)-2-(3-(2-((1,5-dimethyl-1H-pyrazol-3-yl)amino)-5-methylpyrimidin-4-yl)-1H-indol-7-yl)isoindolin-1-one]",10 to 100 nM
15,"Cc1cnc(Nc2cc(C)n(C)n2)nc1-c1c[nH]c2c(N3Cc4cccc(-c5cn[nH]c5)c4C3=O)cccc12 [Example 386, 2-(3-(2-((1,5-dimethyl-1H-pyrazol-3-yl)amino)-5-methylpyrimidin-4-yl)-1H-indol-7-yl)-7-(1H-pyrazol-4-yl)isoindolin-1-one]",10 to 100 nM
16,"Cc1cnc(Nc2cc(C)n(C)n2)nc1-c1c[nH]c2c(N3Cc4c(cccc4-c4ccncc4)C3=O)cccc12 [Example 387, 2-(3-(2-((1,5-dimethyl-1H-pyrazol-3-yl)amino)-5-methylpyrimidin-4-yl)-1H-indol-7-yl)-4-(pyridin-4-yl)isoindolin-1-one]",< 10 nM
17,"Cc1cnc(Nc2cc(C)n(C)n2)nc1-c1c[nH]c2c(N3Cc4c(cccc4-c4cccnc4)C3=O)cccc12 [Example 388, 2-(3-(2-((1,5-dimethyl-1H-pyrazol-3-yl)amino)-5-methylpyrimidin-4-yl)-1H-indol-7-yl)-4-(pyridin-3-yl)isoindolin-1-one]",< 10 nM
18,"Cc1cnc(Nc2cc(C)n(C)n2)nc1-c1c[nH]c2c(N3Cc4c(cccc4-c4cnn(C)c4)C3=O)cccc12 [Example 389, 2-(3-(2-((1,5-dimethyl-1H-pyrazol-3-yl)amino)-5-methylpyrimidin-4-yl)-1H-indol-7-yl)-4-(i-methyl-1H-pyrazol-4-yl)isoindolin-1-one]",< 10 nM
19,"Cc1cnc(Nc2cc(C)n(C)n2)nc1-c1c[nH]c2c(N3Cc4c(cccc4-c4cn[nH]c4)C3=O)cccc12 [Example 390, 2-(3-(2-((1,5-dimethyl-1H-pyrazol-3-yl)amino)-5-methylpyrimidin-4-yl)-1H-indol-7-yl)-4-(1H-pyrazol-4-yl)isoindolin-1-one]",< 10 nM
20,"Cc1cnc(Nc2cc(C)n(C)n2)nc1-c1c[nH]c2c(N3Cc4c(cccc4C4=CCCCC4)C3=O)cccc12 [Example 391, 4-(cyclohex-1-en-1-yl)-2-(3-(2-((1,5-dimethyl-1H-pyrazol-3-yl)amino)-5-methylpyrimidin-4-yl)-1H-indol-7-yl)isoindolin-t-one]",10 to 100 nM
21,"Cc1cnc(Nc2cc(C)n(C)n2)nc1-c1c[nH]c2c(N3Cc4c(cccc4C4=CCOCC4)C3=O)cccc12 [Example 392, 4-(3,6-dihydro-2H-pyran-4-yl)-2-(3-(2-((1,5-dimethyl-1H-pyrazol-3-yl)amino)-5-methylpyrimidin-4-yl)-1H-indol-7-yl)isoindolin-1-one]",< 10 nM
22,"Cc1cnc(Nc2cc(C)n(C)n2)nc1-c1c[nH]c2c(N3Cc4c(cccc4-c4ccoc4)C3=O)cccc12 [Example 393, 2-(3-(2-((1,5-dimethyl-1H-pyrazol-3-yl)amino)-5-methylpyrimidin-4-yl)-1H-indol-7-yl)-4-(furan-3-yl)isoindolin-1-one]",< 10 nM
23,"Cc1cnc(Nc2cc(C)n(C)n2)nc1-c1c[nH]c2c(N3Cc4c(cccc4C4=CCNCC4)C3=O)cccc12 [Example 394, 2-(3-(2-((1,5-dimethyl-1H-pyrazol-3-yl)amino)-5-methylpyrimidin-4-yl)-1H-indol-7-yl)-4-(1,2,3,6-tetrahydropyridin-4-yl)isoindolin-1-one]",< 10 nM
24,"Cc1cnc(Nc2cc(C)n(C)n2)nc1-c1c[nH]c2c(N3Cc4c(cccc4-c4ccc(OC(F)(F)F)cc4)C3=O)cccc12 [Example 395, 2-(3-(2-((1,5-dimethyl-1H-pyrazol-3-yl)amino)-5-methylpyrimidin-4-yl)-1H-indol-7-yl)-4-(4-(trifluoromethoxy)phenyl)isoindolin-1-one]",10 to 100 nM
25,"Cc1cnc(Nc2cc(C)n(C)n2)nc1-c1c[nH]c2c(N3Cc4c(cccc4-c4ccc(N)cc4)C3=O)cccc12 [Example 396, 4-(4-aminophenyl)-2-(3-(2-((1,5-dimethyl-1H-pyrazol-3-yl)amino)-5-methylpyrimidin-4-yl)-1H-indol-7-yl)isoindolin-1-one]",< 10 nM
26,"Cc1cnc(Nc2cc(C)n(C)n2)nc1-c1c[nH]c2c(N3Cc4c(cccc4C4=CCN(C(=O)OC(C)(C)C)CC4)C3=O)cccc12 [Example 397, tert-butyl 4-(2-(3-(2-((1,5-dimethyl-1H-pyrazol-3-yl)amino)-5-methylpyrimidin-4-yl)-1H-indol-7-yl)-1-oxoisoindolin-4-yl)-3,6-dihydropyridine-1(2H)-carboxylat]",< 10 nM
27,"Cc1cnc(Nc2cc(C)n(C)n2)nc1-c1c[nH]c2c(N3Cc4c(cccc4-c4ccc(NC(=O)OC(C)(C)C)cc4)C3=O)cccc12 [Example 398, tert-butyl (4-(2-(3-(2-((1,5-dimethyl-1H-pyrazol-3-yl)amino)-5-methylpyrimidin-4-yl)-1H-indol-7-yl)-1-oxoisoindolin-4-yl)phenyl)carbamate]",10 to 100 nM
28,"Cc1cnc(Nc2cc(C)n(C)n2)nc1-c1c[nH]c2c(N3Cc4c(cccc4-c4ccnc(N)c4)C3=O)cccc12 [Example 399, 4-(2-aminopyridin-4-yl)-2-(3-(2-((1,5-dimethyl-1H-pyrazol-3-yl)amino)-5-methylpyrimidin-4-yl)-1H-indol-7-yl)isoindolin-1-one]",< 10 nM
